Test results taken from patent US9169254B2, “Spiroimidazolone derivative” (Chugai Seiyaku Kabushiki Kaisha, priority 2009, dated 2015).

Target: T1, human PTH1 receptor (Homo sapiens, UniProt Q03431)
T1 sequence (Q03431 27-593): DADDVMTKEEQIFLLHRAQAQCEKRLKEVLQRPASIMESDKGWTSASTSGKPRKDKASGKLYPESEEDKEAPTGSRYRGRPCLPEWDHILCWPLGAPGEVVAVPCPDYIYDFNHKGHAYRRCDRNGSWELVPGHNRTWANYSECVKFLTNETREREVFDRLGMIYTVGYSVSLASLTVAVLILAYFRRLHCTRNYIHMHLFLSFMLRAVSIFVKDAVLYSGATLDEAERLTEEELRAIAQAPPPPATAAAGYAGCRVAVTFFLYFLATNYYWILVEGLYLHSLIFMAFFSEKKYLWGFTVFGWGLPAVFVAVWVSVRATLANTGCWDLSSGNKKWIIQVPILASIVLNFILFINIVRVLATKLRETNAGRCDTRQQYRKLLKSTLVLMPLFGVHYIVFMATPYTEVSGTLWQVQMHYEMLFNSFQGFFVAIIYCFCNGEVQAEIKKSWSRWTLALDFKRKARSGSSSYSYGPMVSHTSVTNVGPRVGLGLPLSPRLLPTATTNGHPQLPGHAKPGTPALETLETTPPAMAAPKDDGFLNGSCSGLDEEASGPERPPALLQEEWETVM
Experiment: In vitro cAMP signal activity in HKRK-B7 cells (LLC-PK1 cells overexpressing the human PTH1 receptor)
Type: cell-based
Conditions: HKRK-B7 cells, compound at 1×10^−3 M

[1] = cAMP produced as percentage of that produced by hPTH(1-34) at 100 nM

Row | cAMP production activity (%) [1] [%] | SMILES | cAMP production activity (%) ([…], 0.1 µM)
1 | 90 | Cc1cc(N(C)C(N)=O)cc(C)c1CCS(=O)(=O)N1CCC2(CC1)N=C(C1CCC(C)CC1)NC2=O (centres unmarked) [Compound 470, 1-(3,5-Dimethyl-4-{2-[2-(4-methyl-cyclohexyl)-4-oxo-1,3,8-triaza-spiro[4.5]dec-1-ene-8-sulfonyl]-ethyl}-phenyl)-1-methyl-urea] | 
2 | 111 | Cc1cc(N(C)C(N)=O)cc(C)c1/C=C/S(=O)(=O)N1CCC2(CC1)N=C(C1CCC(C(F)(F)F)CC1)NC2=O (centres unmarked) [Compound 471, 1-(3,5-Dimethyl-4-{(E)-2-[4-oxo-2-(4-trifluoromethyl-cyclohexyl)-1,3,8-triaza-spiro[4.5]dec-1-ene-8-sulfonyl]-vinyl}-phenyl)-1-methyl-urea] | 
3 | 104 | Cc1cc(N(C)C(N)=O)cc(C)c1CCS(=O)(=O)N1CCC2(CC1)N=C(C1CCC(C(F)(F)F)CC1)NC2=O (centres unmarked) [Compound 472, 1-(3,5-Dimethyl-4-{2-[4-oxo-2-(4-trifluoromethyl-cyclohexyl)-1,3,8-triaza-spiro[4.5]dec-1-ene-8-sulfonyl]-ethyl}-phenyl)-1-methyl-urea] | 
4 |  | Cc1cc(N(C)C(N)=S)cc(C)c1CCS(=O)(=O)N1CCC2(CC1)N=C([C@H]1CC[C@H](C)CC1)NC2=O [Compound 474, 1-(3,5-Dimethyl-4-{2-[2-(4-methyl-cyclohexyl)-4-oxo-1,3,8-triaza-spiro[4.5]dec-1-ene-8-sulfonyl]-ethyl}-phenyl)-1-methyl-thiourea] | 89
5 |  | Cc1cc(N(C)c2nccs2)cc(C)c1CCS(=O)(=O)N1CCC2(CC1)N=C([C@H]1CC[C@H](C)CC1)NC2=O [Compound 475, 8-{2-[2,6-Dimethyl-4-(methyl-thiazol-2-yl-amino)-phenyl]-ethanesulfonyl}-2-(4-methyl-cyclohexyl)-1,3,8-triaza-spiro[4.5]dec-1-en-4-one] | 84
6 | 61 | COC(=O)Cn1ccc2c(/C=C/S(=O)(=O)N3CCC4(CC3)N=C(C3CCCCC3)NC4=O)cccc21 [Compound 476, {4-[(E)-2-(2-cyclohexyl-4-oxo-1,3,8-triaza-spiro[4.5]dec-1-ene-8-sulfonyl)-vinyl]-indol-1-yl}-acetic acid methyl ester] | 
7 | 31 | O=C(N1CCOCC1)n1ccc2c(/C=C/S(=O)(=O)N3CCC4(CC3)N=C(C3CCCCC3)NC4=O)cccc21 [Compound 477, 2-cyclohexyl-8-{(E)-2-[1-(morpholine-4-carbonyl)-1H-indol-4-yl]-ethenesulfonyl}-1,3,8-triaza-spiro[4.5]dec-1-en-4-one] | 
8 | 33 | O=C1NC(C2CCCCC2)=NC12CCN(S(=O)(=O)/C=C/c1cccc3c1ccn3CCCCO)CC2 [Compound 478, 2-cyclohexyl-8-{(E)-2-[1-(4-hydroxy-butyl)-1H-indol-4-yl]-ethenesulfonyl}-1,3,8-triaza-spiro[4.5]dec-1-en-4-one] | 
9 | 15 | O=C1NC(C2CCCCC2)=NC12CCN(S(=O)(=O)/C=C/c1cccc3cc[nH]c13)CC2 [Compound 479, 2-cyclohexyl-8-[(E)-2-(1H-indol-7-yl)-ethenesulfonyl]-1,3,8-triaza-spiro[4.5]dec-1-en-4-one] | 
10 | 44 | O=C1NC(C2CCCCC2)=NC12CCN(S(=O)(=O)/C=C/c1cccc3c1ccn3CCC(O)CO)CC2 (centres unmarked) [Compound 480, 2-cyclohexyl-8-{(E)-2-[1-(3,4-dihydroxy-butyl)-1H-indol-4-yl]-ethenesulfonyl}-1,3,8-triaza-spiro[4.5]dec-1-en-4-one] | 
11 | 59 | CC(=O)NCCc1ccc(/C=C/S(=O)(=O)N2CCC3(CC2)N=C(C2CCCCC2)NC3=O)cc1 [Compound 481, N-(2-{4-[(E)-2-(2-cyclohexyl-4-oxo-1,3,8-triaza-spiro[4.5]dec-1-ene-8-sulfonyl)-vinyl]-phenyl}-ethyl)-acetamide] | 
12 | 38 | CC(=O)NC(C)c1ccc(/C=C/S(=O)(=O)N2CCC3(CC2)N=C(C2CCCCC2)NC3=O)cc1 (centres unmarked) [Compound 482, N-(1-{4-[(E)-2-(2-cyclohexyl-4-oxo-1,3,8-triaza-spiro[4.5]dec-1-ene-8-sulfonyl)-vinyl]-phenyl}-ethyl)-acetamide] | 
13 | 41 | O=C1NC(C2CCCCC2)=NC12CCN(S(=O)(=O)/C=C/c1cccc3c1ccn3Cc1nccs1)CC2 [Compound 483, 2-cyclohexyl-8-[(E)-2-(1-thiazol-2-ylmethyl-1H-indol-4-yl)-ethenesulfonyl]-1,3,8-triaza-spiro[4.5]dec-1-en-4-one] | 
14 | 47 | NS(=O)(=O)CCCn1ccc2c(/C=C/S(=O)(=O)N3CCC4(CC3)N=C(C3CCCCC3)NC4=O)cccc21 [Compound 484, 3-{4-[(E)-2-(2-cyclohexyl-4-oxo-1,3,8-triaza-spiro[4.5]dec-1-ene-8-sulfonyl)-vinyl]-indol-1-yl}-propane-1-sulfonic acid amide] | 
15 | 7.7 | CN1CCN(C(=O)Nc2ccc(/C=C/S(=O)(=O)N3CCC4(CC3)N=C(C3CCCCC3)NC4=O)c(C(F)(F)F)c2)CC1 [Compound 485, 4-methyl-piperazine-1-carboxylic acid {4-[(E)-2-(2-cyclohexyl-4-oxo-1,3,8-triaza-spiro[4.5]dec-1-ene-8-sulfonyl)-vinyl]-3-trifluoromethyl-phenyl}-amide] | 
16 | 59 | CC(C)COC(=O)NCc1ccc(/C=C/S(=O)(=O)N2CCC3(CC2)N=C(C2CCCCC2)NC3=O)cc1 [Compound 486, {4-[(E)-2-(2-cyclohexyl-4-oxo-1,3,8-triaza-spiro[4.5]dec-1-ene-8-sulfonyl)-vinyl]-benzyl}-carbamic acid isobutyl ester] | 
17 | 49 | O=C1NC(C2CCCCC2)=NC12CCN(S(=O)(=O)/C=C/c1ccc3c(ccn3CCOCCO)c1)CC2 [Compound 487, 2-cyclohexyl-8-((E)-2-{1-[2-(2-hydroxy-ethoxy)-ethyl]-1H-indol-5-yl}-ethenesulfonyl)-1,3,8-triaza-spiro[4.5]dec-1-en-4-one] | 
18 | 48 | Cc1cc2[nH]ccc2cc1/C=C/S(=O)(=O)N1CCC2(CC1)N=C(C1CCCCC1)NC2=O [Compound 488, 2-cyclohexyl-8-[(E)-2-(6-methyl-1H-indol-5-yl)-ethenesulfonyl]-1,3,8-triaza-spiro[4.5]dec-1-en-4-one] | 
19 | 37 | O=C(CO)NCc1ccc(/C=C/S(=O)(=O)N2CCC3(CC2)N=C(C2CCCCC2)NC3=O)cc1 [Compound 489, N-{4-[(E)-2-(2-cyclohexyl-4-oxo-1,3,8-triaza-spiro[4.5]dec-1-ene-8-sulfonyl)-vinyl]-benzyl}-2-hydroxy-acetamide] | 
20 | 26 | CN(C)C(=O)NCCc1ccc(/C=C/S(=O)(=O)N2CCC3(CC2)N=C(C2CCCCC2)NC3=O)cc1 [Compound 490, 3-(2-{4-[(E)-2-(2-cyclohexyl-4-oxo-1,3,8-triaza-spiro[4.5]dec-1-ene-8-sulfonyl)-vinyl]-phenyl}-ethyl)-1,1-dimethyl-urea] | 
21 | 58 | Nc1cc(C(F)(F)F)c(/C=C/S(=O)(=O)N2CCC3(CC2)N=C(C2CCCCC2)NC3=O)c(C(F)(F)F)c1 [Compound 491, 8-[(E)-2-(4-amino-2,6-bis-trifluoromethyl-phenyl)-ethenesulfonyl]-2-cyclohexyl-1,3,8-triaza-spiro[4.5]dec-1-en-4-one] | 
22 | 37 | O=C1NC(C2CCCCC2)=NC12CCN(S(=O)(=O)/C=C/c1cc3cc[nH]c3cc1C(F)(F)F)CC2 [Compound 492, 2-cyclohexyl-8-[(E)-2-(6-trifluoromethyl-1H-indol-5-yl)-ethenesulfonyl]-1,3,8-triaza-spiro[4.5]dec-1-en-4-one] | 
23 | 50 | COC(=O)CNc1ccc(/C=C/S(=O)(=O)N2CCC3(CC2)N=C(C2CCCCC2)NC3=O)c(C(F)(F)F)c1 [Compound 493, {4-[(E)-2-(2-cyclohexyl-4-oxo-1,3,8-triaza-spiro[4.5]dec-1-ene-8-sulfonyl)-vinyl]-3-trifluoromethyl-phenylamino}-acetic acid methyl ester] | 
24 | 66 | O=C(CNc1ccc(/C=C/S(=O)(=O)N2CCC3(CC2)N=C(C2CCCCC2)NC3=O)c(C(F)(F)F)c1)NCCO [Compound 494, 2-{4-[(E)-2-(2-cyclohexyl-4-oxo-1,3,8-triaza-spiro[4.5]dec-1-ene-8-sulfonyl)-vinyl]-3-trifluoromethyl-phenylamino}-N-(2-hydroxy-ethyl)-acetamide] | 
25 | 21 | CN(CCO)S(=O)(=O)c1ccc(/C=C/S(=O)(=O)N2CCC3(CC2)N=C(C2CCCCC2)NC3=O)c(C(F)(F)F)c1 [Compound 495, 4-[(E)-2-(2-cyclohexyl-4-oxo-1,3,8-triaza-spiro[4.5]dec-1-ene-8-sulfonyl)-vinyl]-N-(2-hydroxy-ethyl)-N-methyl-3-trifluoromethyl-benzenesulfonamide] | 
26 | 24 | O=C1NC(C2CCCCC2)=NC12CCN(S(=O)(=O)/C=C/c1ccc(S(=O)(=O)N(CCO)CCO)cc1C(F)(F)F)CC2 [Compound 496, 4-[(E)-2-(2-cyclohexyl-4-oxo-1,3,8-triaza-spiro[4.5]dec-1-ene-8-sulfonyl)-vinyl]-N,N-bis-(2-hydroxy-ethyl)-3-trifluoromethyl-benzenesulfonamide] | 
